From patent US20220380763A1, “NUCLEIC ACID DELIVERY ENHANCER” (NATIONAL UNIVERSITY CORPORATION KOCHI UNIVERSITY, priority 2019, published 2022)
Where two headings read alike, the source gives them in different places. Numbered stars: 1 amine (or outer) side, 2 acyl side, 3 side chain; on linkers, the order of the positions; unused ones are H or OH. Square brackets hold non-standard residues; d marks the D form. Peptide text beside a SMILES is read from it. * marks the point of attachment. Pteroyl = Nc1nc2ncc(CNc3ccc(C(=O)*)cc3)nc2c(=O)[nH]1; γGlu = O=C(O)[C@H](CCC(=O)[*:2])N[*:1]; Dab = NCC[C@H](N)C(=O)O

Legend:
NUP85 = NUP85 siRNA (SEQ ID NOs: 7 and 8) in combination; Dab8 1 eq, Fol-Dab8A 3 eq, Fol-Dab8B 1 eq; S2-013 cells, 48 hours
Experimental: (§1) Scrambled control siRNA (SEQ ID NOs: 3 and 4), SNORA18 siRNA (SEQ ID NOs: 5 and 6), NUP85 siRNA (SEQ ID NOs: 7 and 8), WASF2 siRNA (SEQ ID NOs: 9 and 10), and SNORA22 siRNA (SEQ ID NOs: 11 and 12), to which a cationic oligopeptide or a folic acid-cationic peptide was added (a complex of Dab8 with siRNA in 1 equivalent, a complex of Fol-Dab8A with siRNA in 3 equivalents, and a complex of Fol-Dab8B with siRNA in 1 equivalent), were each added to the culture solution the S2-013 cells in a 6-well plate (Thermo Fisher Scientific Inc.) (1.0×10^5 cells/well), and the cells were recovered after 48 hours.
(§2) Semi-quantitative RT-PCR was performed using RNA from the recovered cells to confirm the knockdown effects of SNORA18, NUP85, WASF2, and SNORA22 in the cells.
(§3) Specifically, the total RNA obtained from the S2-013 cells was reverse-transcribed using StrataScript reverse transcriptase (Agilent) and random primers. Appropriate dilutions of each single-stranded cDNA were prepared for subsequent PCR amplification. GAPDH mRNA was used as an internal quantitative control.
(§4) PCR reactions were performed on a TaKaRa PCR Thermal Cycler Dice Gradient with initial denaturation at 94° C. for 2 minutes, followed by 94° C. for 30 seconds, 58° C. for 30 seconds, and 72° C. for 1 minute for 21 cycles (for GAPDH) or 25 cycles (for SNORA18, NUP85, WASF2, and SNORA22). Scanning and densitometric analysis for band intensity measurements were performed using the Quantity One analysis system (Bio-Rad).

WASF2 = WASF2 siRNA (SEQ ID NOs: 9 and 10) in combination; Dab8 1 eq, Fol-Dab8A 3 eq, Fol-Dab8B 1 eq; S2-013 cells, 48 hours
Experimental: as §1, §2, §3, §4

SNORA18 = SNORA18 siRNA (SEQ ID NOs: 5 and 6) in combination; Dab8 1 eq, Fol-Dab8A 3 eq, Fol-Dab8B 1 eq; S2-013 cells, 48 hours
Experimental: as §1, §2, §3, §4

SNORA22 = SNORA22 siRNA (SEQ ID NOs: 11 and 12) in combination; Dab8 1 eq, Fol-Dab8A 3 eq, Fol-Dab8B 1 eq; S2-013 cells, 48 hours
Experimental: as §1, §2, §3, §4

[1] = tested on: bovine pancreas-derived RNase A; conditions: 1 or more equivalents; 10 nM siRNA, 37° C., 60 minutes
Experimental: RNA-degrading enzyme resistance of the nucleic acid duplex was tested in the presence of a cationic oligopeptide.
In this Example, peptides were added to the annealed RNA duplex to form a complex, and the rate of RNA degradation was measured.
Subsequently, the mixture was kept at 95° C. for 5 minutes and then slowly cooled to 4° C. at −0.5° C./min.
Thereafter, 15 μL of 100 μg/mL bovine pancreas-derived RNase A (manufactured by F. Hoffmann-La Roche, Ltd.) was added with stirring at 37° C., and fluorescence intensity measurement was started to track changes over time (excitation wavelength: 490 nm; measurement wavelength: 520 nm; and measurement time: 60 minutes).

[2] = tested on: pancreatic cancer tissue of mice carrying human pancreatic cancer organoids derived from S2-013 pancreatic cancer cells; conditions: for delivery of SNORA22 siRNA to pancreatic cancer tissue: 5 μg siRNA tail vein, 24 hours
Experimental: Human pancreatic cancer organoids were prepared using 52-013 pancreatic cancer cells by modifying the method described in JP Patent Application Publication No. 2018-110575 A1.
Specifically, the S2-013 pancreatic cancer cells (20×10^4 cells), human mesenchymal stem cells MSC (LONZA, 40×10^4 cells), and human umbilical vein endothelial cells HUVEC (LONZA, 14×10^4 cells) were added to DMEM/Matrigel mixed solution in a 48-well plate (Thermo Fisher Scientific Inc.) and incubated in a CO2 incubator at 37° C. for 30 minutes.
Then, 300 μL/well of DMEM/EGM mixed solution was added thereto and incubated again at 37° C. for 24 hours to prepare one pancreatic cancer organoid in each well.
Subsequently, the skin on the flank of nude mice (6-week-old BALB/cSlc-nu/nu (Pathogen-free female athymic nude mice), Japan SLC, Inc.) was incised, and the pancreatic cancer organoids obtained above were subcutaneously transplanted (2 mice in each group).
Six weeks after transplantation, the chemically-modified SNORA22 siRNA (SEQ ID NOs: 27 and 28, 5 μg) labeled with Alexa-594 was administered with 1, 2, or 3 equivalents of the cationic oligopeptide (Dab8) or the folic acid-cationic oligopeptide complex (Fol-Dab8A or Fol-Dab8B) by tail vein injection. After 24 hours, images were taken with an in vivo imager.
Measuring instrument: Spectrum In Vivo Imaging System (PerkinElmer, Inc., Waltham, Mass.)
Measurement condition: kexc 640 nm, kemi 680 nm
In the same manner as in Example 11, the delivery of chemically-modified SNORA18 siRNA (SEQ ID NOs: 21 and 22) to pancreatic cancer-carrying mice when administered with the folic acid-cationic oligopeptide complex (Fol-Dab8A or Fol-Dab8B) was imaged using an in vivo imager.
In the same manner as in Examples 11 and 13, the delivery of chemically-modified WASF2 siRNA (SEQ ID NOs: 25 and 26) to pancreatic cancer-carrying mice when administered with the folic acid-cationic oligopeptide complex (Fol-Dab8A or Fol-Dab8B) was imaged using an in vivo imager.

[3] = chemically-modified SNORA18 siRNA, 1 to 3 equivalents
[4] = chemically-modified WASF2 siRNA, 1 to 3 equivalents
[5] = compared to Dab8, 1 to 3 equivalents

Structure (SMILES)	knockdown effect on NUP85 (NUP85)	knockdown effect on WASF2 (WASF2)	knockdown effect on SNORA18 (SNORA18)	knockdown effect on SNORA22 (SNORA22)	rate of increase in fluorescence intensity (degradation of RNA duplex by RNase A) [1]	delivery of SNORA18 siRNA to pancreatic cancer tissue ([2]; 1 equivalent)	delivery of SNORA18 siRNA to pancreatic cancer tissue ([2]; 3 equivalents)	delivery of SNORA22 siRNA to pancreatic cancer tissue ([2]; 3 equivalents)	delivery of SNORA18 siRNA to pancreatic cancer tissue [2, 3]	delivery of WASF2 siRNA to pancreatic cancer tissue [2, 4]	delivery of SNORA22 siRNA to pancreatic cancer tissue [2, 5]	delivery of WASF2 siRNA to pancreatic cancer tissue ([2]; 1 equivalent)	delivery of SNORA22 siRNA to pancreatic cancer tissue ([2]; 2 equivalents)	delivery of WASF2 siRNA to pancreatic cancer tissue ([2]; 3 equivalents)
NCC[C@H](NC(=O)[C@H](CCN)NC(=O)[C@H](CCN)NC(=O)[C@H](CCN)NC(=O)[C@H](CCN)NC(=O)[C@H](CCN)NC(=O)[C@H](CCN)NC(=O)[C@H](CCN)NC(=O)CNC(=O)CNC(=O)CNC(=O)CC[C@H](NC(=O)c1ccc(NCc2cnc3nc(N)[nH]c(=O)c3n2)cc1)C(=O)O)C(N)=O [Fol-Dab8A] ({Pteroyl-γGlu}-GGG[Dab][Dab][Dab][Dab][Dab][Dab][Dab][Dab]-NH2)	remarkable knockdown effects	remarkable knockdown effects	remarkable knockdown effects	remarkable knockdown effects	slower	high concentration	high concentration	high concentration	enhanced	enhanced	enhanced	–	–	–
NCC[C@H](NC(=O)[C@H](CCN)NC(=O)[C@H](CCN)NC(=O)[C@H](CCN)NC(=O)[C@H](CCN)NC(=O)[C@H](CCN)NC(=O)[C@H](CCN)NC(=O)[C@H](CCN)NC(=O)CNC(=O)CNC(=O)CNC(=O)[C@H](CCC(=O)O)NC(=O)c1ccc(NCc2cnc3nc(N)[nH]c(=O)c3n2)cc1)C(N)=O [Fol-Dab8B] (Pteroyl-EGGG[Dab][Dab][Dab][Dab][Dab][Dab][Dab][Dab]-NH2)	remarkable knockdown effects	remarkable knockdown effects	remarkable knockdown effects	remarkable knockdown effects	slower	–	–	–	enhanced	enhanced	enhanced	high concentration	high concentration	high concentration
